Measured values: PMC5108032, “Discovery of a Quinoline-4-carboxamide Derivative with a Novel Mechanism of Action, Multistage Antimalarial Activity, and Potent in Vivo Efficacy” (Journal of Medicinal Chemistry, 2016)

Legend:
[1] = Plasma protein binding (equilibrium dialysis); assay type: in vitro ADME; details: female, NMRI; mouse plasma protein binding; read-out: PPB (converted)
Description: (§1) by the addition of excess NADPH (8 mg/mL 50 mM potassium phosphate buffer, pH 7.4).
(§2) Immediately, at time zero, then at 3, 6, 9, 15 and 30 min an aliquot (50 μL) of the incubation mixture was removed and mixed with acetonitrile (100 μL) to stop the reaction. Internal standard was added to all samples, the samples centrifuged to sediment precipitated protein and the plates then sealed prior to UPLC-MS/MS analysis using a Quattro Premier XE (Waters Corporation, USA).
XLfit (IDBS, UK) was used to calculate the exponential decay and consequently the rate constant (k) from the ratio of peak area of test compound to internal standard at each timepoint. The rate of intrinsic clearance (CLi) of each test compound was then calculated using the following calculation:
CLi (mL/min/g liver) = k x V x Microsomal protein yield
Where V (mL/mg protein) is the incubation volume/mg protein added and microsomal protein yield is taken as 52.5 mg protein per g liver. Verapamil (0.5 µM) was used as a positive control to confirm acceptable assay performance. Experiments were performed using a single time-course experiment.
Plasma Protein Binding (PPB) experiments
This was based on a previously described method, with the exception that NMRI mouse plasma was used here.8 In brief, a 96 well equilibrium dialysis apparatus was used to determine the free fraction in plasma for each compound (HT Dialysis LLC, Gales Ferry, CT). Membranes (12-14 kDA cut-off) were conditioned in deionised water for 60 min, followed by conditioning in 80:20 deionised water:ethanol for 20 min, and then rinsed in isotonic buffer before use. Female CD1 mouse plasma was removed from the freezer and allowed to thaw on the day of experiment. Thawed plasma was then centrifuged (Allegra X12-R, Beckman Coulter, USA), spiked with test compound (final concentration 10 μg/mL), and 150 μL aliquots (n=6 replicate determinations) loaded into the 96-well equilibrium dialysis plate. Dialysis against isotonic buffer (150 µL) was carried out for 5 h in a temperature controlled incubator at ~37 °C (Barworld scientific Ltd, UK) using an orbital microplate shaker at 100 revolutions/minute (Barworld Scientific Ltd, UK). At the end of the incubation period, 50 μL aliquots of plasma or buffer were transferred to micronic tubes (Micronic B.V., the Netherlands) and the composition in each tube balanced with control fluid (50 μL), such that the volume of buffer to plasma is the same. Sample extraction was performed by the addition of 200 µL of acetonitrile containing an appropriate internal standard. Samples were allowed to mix for 1 min and then centrifuged at 3000 rpm in 96-well blocks for 15 min (Allegra X12-R, Beckman Coulter, USA) after which 150 μL of supernatant was removed to 50 μL of water. All samples were analysed by UPLC-MS/MS on a Quattro Premier XE Mass Spectrometer (Waters Corporation, USA). The unbound fraction was determined as the ratio of the peak area in buffer to that in plasma. Experiments […]
Parallel Artificial Membrane Permeability Assay (PAMPA)
PAMPA was performed using a 96-well pre-coated BD Gentest™ PAMPA plate (BD Biosciences, U.K.). Each well was divided into two chambers; donor and acceptor, separated by a lipid-oil-lipid tri-layer constructed in a porous filter. The effective permeability, Pe, of the compound was measured at pH 7.4. Stock solutions (5 mM) of the compound were prepared in DMSO. The compound was then further diluted to 10 µM in phosphate buffered saline at pH 7.4. […]

[2] = Intrinsic clearance (Cli) in mouse liver microsomes; assay type: in vitro ADME; details: mouse liver microsome
Description: inhibition at top, C= EC50, D= slope, x= inhibitor concentration and y= % inhibition. […]
reach 100% of inhibition, B was fixed to 100 only when at least 50% of inhibition was reached.
Plasmodium falciparum late stage (IV-V) gametocyte high content imaging assay Plasmodium falciparum NF54-pfs16-LUC-GFP stage IV-V Gametocytes were produced as described previously.5 Compounds were solubilized in DMSO and serially diluted in three concentrations per log standard curves in DM SO. One µl of compound was subsequently diluted in 25µl of water (4% DMSO) and 5µl transferred into the base of 384 well PerkinElmer CellCarrier plates. Forty-five µl of stage IV-V gametocytes (10%P in 0.1%H) were added to the imaging plates which were in turn sealed with a gas permeable membrane and incubated at 37°C, 5% CO 2, 5% O2, 90% N2 and 60% humidity […]
Post incubation, 5µl of MitoTracker® Red CM -H2Xros (MTR) solution (0.66ug/ml) was added to all wells and the plates incubated for a further 16hours. The assay plates were then imaged and the number of viable gametocytes determined for test compounds plus 0.4%DMSO and 5µM Puromycin.
(0.4%DMSO) control values. Percent inhibition was plotted against log compound concentration using a 4 parameter log dose, non-linear regression analysis, with sigmoidal dose response (variable slope) curve fit using Prizm 4.0. IC50 values were obtained from this curve fit. The compound testing was performed in duplicate point within two separate experiments.
Plasmodium berghei ookinete development assay
Assay was performed as previously reported.6 Briefly blood containing P. berghei CTRPp-GFP gametocytes was rapidly harvested from infected mice and introduced to test compounds pre-diluted in ookinete medium (to induce gamete formation and support ookinete development) in 96-well plates. Plates were incubated in the dark at 21°C for 22 hr before GFP fluorescence intensity measured in a plate reader. % inhibition of ookinete formation was calculated with reference to the fluorescence intensity values of a positive control (20 µM cycloheximide) and a solvent-only negative control (DMSO). All assays were performed in triplicate independent experiments and EC50 values calculated in Graphpad Prism.
The aqueous solubility of the test compounds was measured using laser nephelometry, as described previously.7 Compounds were subject to serial dilution from 10 mg/mL to 0.5 mg/mL in DMSO. An aliquot was then mixed with MilliQ water to obtain an aqueous dilution plate with a final concentration range of 100 – 5 μg/mL, with a final DMSO concentration of 1.0%. Triplicate aliquots were transferred to a flat bottomed polystyrene plate which was immediately read on the NEPHELOstar (BMG Lab Technologies). The amount of laser scatter caused by insoluble particulates (relative nephelometry units, RNU) was plotted against compound concentration using a segmental regression fit, with the point of inflection being quoted as the compounds aqueous solubility (μg/mL; […]
Intrinsic Clearance (Cli) experiments
The procedure was carried out as reported previously.7 Test compound (0.5 µM) was incubated with female CD1 mouse, male sprague-dawley rat or pooled human mixed gender liver microsomes (Xenotech LLC TM; 0.5 mg/mL 50 mM potassium phosphate buffer, pH 7.4) and the reaction initiated […]
as §1, §2
XLfit (IDBS, UK) was used to calculate the exponential decay and consequently the rate constant (k) from the ratio of peak area of test compound to internal standard at each timepoint. The rate of […]

SMILES	fraction unbound at 5 h, 10 μg/mL [1]	MLM Cli [2]
O=C(NCCN1CCCC1)c1cc(NCCCN2CCOCC2)nc2ccc(F)cc12 [Compound 25, 6-Fluoro-2-((3-morpholinopropyl)amino)-N-(2-(pyrrolidin-1-yl)ethyl)quinoline-4-carboxamide]	0.41	0.8 mL min^–1 g^–1
O=C(NCCN1CCCC1)c1cc(NCCCCN2CCOCC2)nc2ccc(Cl)cc12 [Compound 27, 6-Chloro-2-((4-morpholinobutyl)amino)-N-(2-(pyrrolidin-1-yl)ethyl)quinoline-4-carboxamide]	0.51	2.0 mL min^–1 g^–1
O=C(NCCN1CCCC1)c1cc(NCCC2CCOCC2)nc2ccc(Cl)cc12 [Compound 30, 6-Chloro-N-(2-(pyrrolidin-1-yl)ethyl)-2-((2-(tetrahydro-2H-pyran-4-yl)ethyl)amino)quinoline-4-carboxamide]	0.23	2 mL min^–1 g^–1
O=C(NCCN1CCCC1)c1cc(-c2ccc(S(=O)(=O)N3CCOCC3)cc2)nc2ccc(F)cc12 [Compound 38, 6-Fluoro-2-(4-(morpholinosulfonyl)phenyl)-N-(2-(pyrrolidin-1-yl)ethyl)quinoline-4-carboxamide]	0.25	1.9 mL min^–1 g^–1
O=C(NCCN1CCCC1)c1cc(-c2ccc(CN3CCOCC3)cc2F)nc2ccc(F)cc12 [Compound 41]	–	<0.5 mL min^–1 g^–1
O=C(NCCN1CCCC1)c1cc(-c2ccc(CN3CCOCC3)cc2Cl)nc2ccc(F)cc12 [Compound 42, 2-(2-Chloro-4-(morpholinomethyl)phenyl)-6-fluoro-N-(2-(pyrrolidin-1-yl)ethyl)quinoline-4-carboxamide]	0.44	0.5 mL min^–1 g^–1
